In patent US10294202B2, “Pyrrolidinones as herbicides” (FMC Corporation, priority 2013, dated 2019):

Experiments:
[1] = system: waterhemp; assay: Test C pre-/postemergence herbicide test; assay type: in vivo, Amaranthus rudis
Outline: (§1)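 Visual rating, 0 (no effect) to 100 (complete control), versus untreated controls after 13 to 15 days in the greenhouse. Pre: seeds in loam/sand, sprayed at planting. Post: 1- to 4-leaf plants (2 to 18 cm) in peat-based mix. Compounds in non-phytotoxic solvent plus surfactant.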

[2] = system: oat, wild; assay: Test C pre-/postemergence herbicide test; assay type: in vivo, Avena fatua; details: Postemergence
Outline: as §1

[3] = system: morningglory; assay: Test C pre-/postemergence herbicide test; assay type: in vivo, Ipomoea coccinea
Outline: as §1

[4] = system: barnyardgrass; assay: Test A pre-/postemergence herbicide test; assay type: in vivo, Echinochloa crus-galli; details: for Plant response rating, Barnyardgrass: 0 to 100 scale
Outline: (§2)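 Seeds sown in loam soil/sand blend received a preemergence directed soil spray of test chemical in non-phytotoxic solvent with surfactant; postemergence plants (2–10 cm, one- to two-leaf stage) were sprayed with the same formulation. After about 10 days in greenhouse, injury was rated visually versus untreated controls, 0 (no effect) to 100 (complete control).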

[5] = system: foxtail, giant; assay: Test C pre-/postemergence herbicide test; assay type: in vivo, Setaria faberii
Outline: as §1

[6] = system: giant foxtail; assay: Test A pre-/postemergence herbicide test; assay type: in vivo, Setaria faberii; details: for Plant response rating, Foxtail, Giant: 0 to 100 scale
Outline: as §2

[7] = system: crabgrass, large; assay: Test C pre-/postemergence herbicide test; assay type: in vivo, Digitaria sanguinalis
Outline: as §1

[8] = system: pigweed; assay: Test A pre-/postemergence herbicide test; assay type: in vivo, Amaranthus retroflexus; details: for Plant response rating, Pigweed: 0 to 100 scale
Outline: as §2

[9] = system: lambsquarters; assay: Test C pre-/postemergence herbicide test; assay type: in vivo, Chenopodium album
Outline: as §1

[10] = system: velvetleaf; assay: Test C pre-/postemergence herbicide test; assay type: in vivo, Abutilon theophrasti
Outline: as §1

[11] = system: galium; assay: Test C pre-/postemergence herbicide test; assay type: in vivo, Galium aparine
Outline: as §1

[12] = system: barnyardgrass; assay: Test C pre-/postemergence herbicide test; assay type: in vivo, Echinochloa crus-galli
Outline: as §1

[13] = Postemergence, 31 g ai/ha, scale 0 to 100 (0 no effect, 100 complete control)
[14] = Postemergence, 62 g ai/ha, scale 0 (no effect) to 100 (complete control)
[15] = Postemergence, 125 g ai/ha, scale 0 to 100 (0 no effect, 100 complete control)
[16] = Postemergence, 250 g ai/ha, scale 0 to 100 (0 no effect, 100 complete control)
[17] = Preemergence, 31 g ai/ha, scale 0 to 100, 0 is no effect and 100 is complete control
[18] = Preemergence, 62 g ai/ha, scale 0 to 100 (0 no effect, 100 complete control)
[19] = Preemergence, 125 g ai/ha, scale 0 to 100 (0 no effect, 100 complete control)
[20] = 125 g ai/ha, visual rating, 0 no effect, 100 complete control, approximately 10 days, preemergence
[21] = Postemergence, 125 g ai/ha, 0 is no effect, 100 is complete control
[22] = preemergence, 500 g ai/ha, 0 is no effect and 100 is complete control

**Q.** With O=C1NCC(c2ccc(C(F)(F)F)cc2)C1C(=O)Nc1ccc(F)c(F)c1F (centres unmarked) [Compound 232] as the compound, how does the “Plant response rating, Waterhemp” value [1, 13] read?
**A.** 75

**Q.** And the “Plant response rating, Waterhemp” value [1, 14]?
**A.** 75

**Q.** And the “Plant response rating, Waterhemp” value [1, 15]?
**A.** 80

**Q.** What about the “Plant response rating, Waterhemp” value [1, 16] of the same compound?
**A.** 80

**Q.** And the “Waterhemp plant response rating” value [1, 17]?
**A.** 85

**Q.** And the “Waterhemp plant response rating” value [1, 18]?
**A.** 90

**Q.** And the “Plant response rating, Waterhemp” value [1, 19]?
**A.** 90

**Q.** And the “Plant response rating (scale of 0 to 100), Waterhemp” value ([1]; Preemergence, 250 g ai/ha)?
**A.** 95

**Q.** And the “Plant response rating, Oat, Wild” value ([2]; 31 g ai/ha, scale 0 to 100 (0 no effect, 100 complete control))?
**A.** 0

**Q.** And the “Plant response rating, Oat, Wild” value ([2]; 62 g ai/ha, scale 0 (no effect) to 100 (complete control))?
**A.** 0

**Q.** And the “Plant response rating, Oat, Wild” value ([2]; 125 g ai/ha, scale 0 to 100 (0 no effect, 100 complete control))?
**A.** 0

**Q.** What about the “Plant response rating, Oat, Wild” value ([2]; 250 g ai/ha, scale 0 to 100 (0 no effect, 100 complete control)) of the same compound?
**A.** 30

**Q.** What about the “Plant response rating, Morningglory” value [3, 13] of the same compound?
**A.** 15

**Q.** What about the “Plant response rating, Morningglory” value [3, 14] of the same compound?
**A.** 0

**Q.** What about the “Plant response rating, Morningglory” value [3, 15] of the same compound?
**A.** 25

**Q.** And the “Plant response rating, Morningglory” value [3, 16]?
**A.** 60

**Q.** What about the “Morningglory plant response rating” value [3, 17] of the same compound?
**A.** 0

**Q.** And the “Morningglory plant response rating” value [3, 18]?
**A.** 15

**Q.** And the “Plant response rating, Morningglory” value [3, 19]?
**A.** 15

**Q.** And the “Plant response rating (scale of 0 to 100), Morningglory” value ([3]; Preemergence, 250 g ai/ha)?
**A.** 20

**Q.** And the “Plant response rating, Barnyardgrass” value [4, 20]?
**A.** 90

**Q.** And the “Plant response rating, Barnyardgrass” value [4, 21]?
**A.** 80

**Q.** And the “Barnyardgrass plant response rating (0 to 100 scale, 0 is no effect, 100 is complete control)” value ([4]; Postemergence, 500 g ai/ha)?
**A.** 90

**Q.** What about the “Plant response rating, Barnyardgrass” value [4, 22] of the same compound?
**A.** 90

**Q.** And the “Plant response rating, Foxtail, Giant” value [5, 13]?
**A.** 0

**Q.** And the “Plant response rating, Foxtail, Giant” value [5, 14]?
**A.** 5

**Q.** And the “Plant response rating, Foxtail, Giant” value [5, 15]?
**A.** 15

**Q.** What about the “Plant response rating, Foxtail, Giant” value [5, 16] of the same compound?
**A.** 70

**Q.** What about the “Foxtail, Giant plant response rating” value [5, 17] of the same compound?
**A.** 85

**Q.** And the “Foxtail, Giant plant response rating” value [5, 18]?
**A.** 90

**Q.** What about the “Plant response rating, Foxtail, Giant” value [5, 19] of the same compound?
**A.** 90

**Q.** And the “Plant response rating (scale of 0 to 100), Foxtail, Giant” value ([5]; Preemergence, 250 g ai/ha)?
**A.** 95

**Q.** What about the “Plant response rating, Foxtail, Giant” value [6, 20] of the same compound?
**A.** 90

**Q.** What about the “Plant response rating, Foxtail, Giant” value [6, 21] of the same compound?
**A.** 90

**Q.** And the “Foxtail, Giant plant response rating (0 to 100 scale, 0 is no effect, 100 is complete control)” value ([6]; Postemergence, 500 g ai/ha)?
**A.** 90

**Q.** What about the “Plant response rating, Foxtail, Giant” value [6, 22] of the same compound?
**A.** 90

**Q.** And the “Plant response rating, Crabgrass, Large” value [7, 13]?
**A.** 25

**Q.** And the “Plant response rating, Crabgrass, Large” value [7, 14]?
**A.** 35

**Q.** What about the “Plant response rating, Crabgrass, Large” value [7, 15] of the same compound?
**A.** 60

**Q.** What about the “Plant response rating, Crabgrass, Large” value [7, 16] of the same compound?
**A.** 75

**Q.** What about the “Crabgrass, Large plant response rating” value [7, 17] of the same compound?
**A.** 85

**Q.** What about the “Crabgrass, Large plant response rating” value [7, 18] of the same compound?
**A.** 90

**Q.** And the “Plant response rating, Crabgrass, Large” value [7, 19]?
**A.** 90

**Q.** What about the “Plant response rating (scale of 0 to 100), Crabgrass, Large” value ([7]; Preemergence, 250 g ai/ha) of the same compound?
**A.** 90

**Q.** What about the “Plant response rating, Pigweed” value [8, 20] of the same compound?
**A.** 50

**Q.** And the “Plant response rating, Pigweed” value [8, 21]?
**A.** 80

**Q.** What about the “Pigweed plant response rating (0 to 100 scale, 0 is no effect, 100 is complete control)” value ([8]; Postemergence, 500 g ai/ha) of the same compound?
**A.** 90

**Q.** What about the “Plant response rating, Pigweed” value [8, 22] of the same compound?
**A.** 60

**Q.** What about the “Plant response rating, Lambsquarters” value [9, 13] of the same compound?
**A.** 80

**Q.** And the “Plant response rating, Lambsquarters” value [9, 14]?
**A.** 85

**Q.** And the “Plant response rating, Lambsquarters” value [9, 15]?
**A.** 85

**Q.** What about the “Plant response rating, Lambsquarters” value [9, 16] of the same compound?
**A.** 85

**Q.** And the “Lambsquarters plant response rating” value [9, 17]?
**A.** 75

**Q.** And the “Lambsquarters plant response rating” value [9, 18]?
**A.** 85

**Q.** What about the “Plant response rating, Lambsquarters” value [9, 19] of the same compound?
**A.** 90

**Q.** And the “Plant response rating (scale of 0 to 100), Lambsquarters” value ([9]; Preemergence, 250 g ai/ha)?
**A.** 90

**Q.** And the “Plant response rating, Velvetleaf” value [10, 13]?
**A.** 5

**Q.** What about the “Plant response rating, Velvetleaf” value [10, 14] of the same compound?
**A.** 15

**Q.** What about the “Plant response rating, Velvetleaf” value [10, 15] of the same compound?
**A.** 30

**Q.** And the “Plant response rating, Velvetleaf” value [10, 16]?
**A.** 60

**Q.** And the “Velvetleaf plant response rating” value [10, 17]?
**A.** 25

**Q.** What about the “Velvetleaf plant response rating” value [10, 18] of the same compound?
**A.** 40

**Q.** And the “Plant response rating, Velvetleaf” value [10, 19]?
**A.** 65

**Q.** And the “Plant response rating (scale of 0 to 100), Velvetleaf” value ([10]; Preemergence, 250 g ai/ha)?
**A.** 75

**Q.** And the “Plant response rating, Galium” value [11, 13]?
**A.** 75

**Q.** And the “Plant response rating, Galium” value [11, 14]?
**A.** 80

**Q.** What about the “Plant response rating, Galium” value [11, 15] of the same compound?
**A.** 80

**Q.** What about the “Plant response rating, Galium” value [11, 16] of the same compound?
**A.** 80

**Q.** And the “Galium plant response rating” value [11, 17]?
**A.** 85

**Q.** What about the “Galium plant response rating” value [11, 18] of the same compound?
**A.** 85

**Q.** And the “Plant response rating, Galium” value [11, 19]?
**A.** 90

**Q.** What about the “Plant response rating (scale of 0 to 100), Galium” value ([11]; Preemergence, 250 g ai/ha) of the same compound?
**A.** 90

**Q.** What about the “Plant response rating, Barnyardgrass” value [12, 13] of the same compound?
**A.** 5

**Q.** What about the “Plant response rating, Barnyardgrass” value [12, 14] of the same compound?
**A.** 55

**Q.** What about the “Plant response rating, Barnyardgrass” value [12, 15] of the same compound?
**A.** 70

**Q.** And the “Plant response rating, Barnyardgrass” value [12, 16]?
**A.** 75

**Q.** What about the “Barnyardgrass plant response rating” value [12, 17] of the same compound?
**A.** 85

**Q.** And the “Plant response rating, Barnyardgrass” value ([12]; Preemergence, 62 g ai/ha, scale 0 to 100)?
**A.** 85

**Q.** What about the “Plant response rating, Barnyardgrass” value [12, 19] of the same compound?
**A.** 95

**Q.** What about the “Plant response rating (scale of 0 to 100; 0 is no effect, 100 is complete control), Barnyardgrass” value ([12]; Preemergence, 250 g ai/ha) of the same compound?
**A.** 95
